Blank lines part the entries; values can stand above or below the molecule they belong to. Active and inactive are the calls of the source. No cut-off for these calls is given here.
How the values were obtained:
[1] = tested on: Human immunodeficiency virus 1; experiment: Antiviral activity against HIV-1 X4 NL4-3 infected in human PBMC assessed as inhibition of viral replication by measuring reduction in p24 antigen level measured after 5 days by ELISA; assay type: functional, organism-based; conditions: Human immunodeficiency virus 1, X4 NL4-3, PBMC, 120 h
[2] = Cytotoxicity against human PBMC assessed as reduction in cell viability at 0.016 to 10 uM incubated for 5 days by CellTiter-Blue assay; assay type: toxicity, cell-based; conditions: 120 h, dose 0.016-10 µM, time 5 day
[3] = molecular target: T1, C-X-C chemokine receptor type 4 (Homo sapiens, UniProt P61073); experiment: Displacement of 12G5 mAb from CXCR4 (unknown origin) expressed in CHO cells incubated for 40 mins by spectrophotometric method; assay type: cell-based
T1 sequence (P61073 whole entry): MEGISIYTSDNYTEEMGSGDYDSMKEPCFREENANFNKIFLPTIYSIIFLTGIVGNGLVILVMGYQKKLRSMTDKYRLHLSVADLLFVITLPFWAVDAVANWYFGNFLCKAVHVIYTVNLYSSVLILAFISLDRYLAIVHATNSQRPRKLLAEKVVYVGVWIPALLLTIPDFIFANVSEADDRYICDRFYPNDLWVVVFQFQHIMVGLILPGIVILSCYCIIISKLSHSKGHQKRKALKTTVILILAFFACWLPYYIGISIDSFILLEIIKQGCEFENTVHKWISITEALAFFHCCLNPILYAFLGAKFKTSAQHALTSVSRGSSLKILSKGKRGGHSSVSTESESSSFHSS

[4] = tested on: Human immunodeficiency virus 1; experiment: Antiviral activity against HIV-1 R5 Bal-6 infected in human PBMC assessed as inhibition of viral replication by measuring reduction in p24 antigen level at 0.1 to 10 uM measured after 5 days by ELISA; assay type: functional, organism-based; conditions: dose 0.1-10 µM, time 5.0 day
[5] = tested on: Human immunodeficiency virus 1; experiment: Antiviral activity against HIV-1 X4 NL4-3 infected in human PBMC assessed as inhibition of viral replication by measuring reduction in p24 antigen level at 10 uM measured after 5 days by ELISA; assay type: functional, organism-based; conditions: time 5.0 day
[6] = tested on: C-X-C chemokine receptor type 4 (Homo sapiens), P61073 [D171A]; experiment: Displacement of 12G5 mAb from CXCR4 D171A mutant (unknown origin) expressed in CHO cells at 200 nM incubated for 40 mins by spectrophotometric method; assay type: cell-based; conditions: filed as antagonist
Sequence of C-X-C chemokine receptor type 4 (Homo sapiens), P61073 [D171A] (P61073 whole entry D171A): as the sequence (P61073 whole entry) above, with D171A counted along it

[7] = molecular target: T1, C-X-C chemokine receptor type 4; experiment: Antagonist activity against CXCR4 in human SUP-T1 cells assessed as inhibition of SDF-1alpha-induced cell migration preincubated with cells for 30 mins followed by incubation with SDF-1alpha for 3 hrs by CellTiter-96 reagent based transwell assay; conditions: filed as antagonist, time 210.0 min
[8] = tested on: C-X-C chemokine receptor type 4 (Homo sapiens), P61073 [D262N]; experiment: Displacement of 12G5 mAb from CXCR4 D262N mutant (unknown origin) expressed in CHO cells at 200 nM incubated for 40 mins by spectrophotometric method; assay type: cell-based
Sequence of C-X-C chemokine receptor type 4 (Homo sapiens), P61073 [D262N] (P61073 whole entry D262N): as the sequence (P61073 whole entry) above, with D262N counted along it

[9] = tested on: C-X-C chemokine receptor type 4 (Homo sapiens), P61073 [D193A]; experiment: Displacement of 12G5 mAb from CXCR4 D193A mutant (unknown origin) expressed in CHO cells at 200 nM incubated for 40 mins by spectrophotometric method; assay type: cell-based
Sequence of C-X-C chemokine receptor type 4 (Homo sapiens), P61073 [D193A] (P61073 whole entry D193A): as the sequence (P61073 whole entry) above, with D193A counted along it

[10] = tested on: C-X-C chemokine receptor type 4 (Homo sapiens), P61073 [Y45A]; experiment: Displacement of 12G5 mAb from CXCR4 Y45A mutant (unknown origin) expressed in CHO cells at 200 nM incubated for 40 mins by spectrophotometric method; assay type: cell-based; conditions: filed as antagonist
Sequence of C-X-C chemokine receptor type 4 (Homo sapiens), P61073 [Y45A] (P61073 whole entry Y45A): as the sequence (P61073 whole entry) above, with Y45A counted along it

[11] = tested on: C-X-C chemokine receptor type 4 (Homo sapiens), P61073 [E288A]; experiment: Displacement of 12G5 mAb from CXCR4 E288A mutant (unknown origin) expressed in CHO cells at 200 nM incubated for 40 mins by spectrophotometric method; assay type: cell-based
Sequence of C-X-C chemokine receptor type 4 (Homo sapiens), P61073 [E288A] (P61073 whole entry E288A): as the sequence (P61073 whole entry) above, with E288A counted along it

[12] = tested on: C-X-C chemokine receptor type 4 (Homo sapiens), P61073 [F87A]; experiment: Displacement of 12G5 mAb from CXCR4 F87A mutant (unknown origin) expressed in CHO cells at 200 nM incubated for 40 mins by spectrophotometric method; assay type: cell-based
Sequence of C-X-C chemokine receptor type 4 (Homo sapiens), P61073 [F87A] (P61073 whole entry F87A): as the sequence (P61073 whole entry) above, with F87A counted along it

[13] = tested on: C-X-C chemokine receptor type 4 (Homo sapiens), P61073 [W161A]; experiment: Displacement of 12G5 mAb from CXCR4 W161A mutant (unknown origin) expressed in CHO cells at 200 nM incubated for 40 mins by spectrophotometric method; assay type: cell-based
Sequence of C-X-C chemokine receptor type 4 (Homo sapiens), P61073 [W161A] (P61073 whole entry W161A): as the sequence (P61073 whole entry) above, with W161A counted along it

[14] = tested on: C-X-C chemokine receptor type 4 (Homo sapiens), P61073 [W195A]; experiment: Displacement of 12G5 mAb from CXCR4 W195A mutant (unknown origin) expressed in CHO cells at 200 nM incubated for 40 mins by spectrophotometric method; assay type: cell-based
Sequence of C-X-C chemokine receptor type 4 (Homo sapiens), P61073 [W195A] (P61073 whole entry W195A): as the sequence (P61073 whole entry) above, with W195A counted along it

[15] = molecular target: T1, C-X-C chemokine receptor type 4; experiment: Antagonist activity against CXCR4 in human SUP-T1 cells assessed as inhibition of SDF-1alpha-induced cell migration at 10 uM preincubated with cells for 30 mins followed by incubation with SDF-1alpha for 3 hrs by CellTiter-96 reagent based transwell assay; conditions: filed as antagonist, time 210.0 min
[16] = tested on: C-X-C chemokine receptor type 4 (Homo sapiens), P61073 [E288D]; experiment: Displacement of 12G5 mAb from CXCR4 E288D mutant (unknown origin) expressed in CHO cells at 200 nM incubated for 40 mins by spectrophotometric method; assay type: cell-based
Sequence of C-X-C chemokine receptor type 4 (Homo sapiens), P61073 [E288D] (P61073 whole entry E288D): as the sequence (P61073 whole entry) above, with E288D counted along it

[17] = tested on: C-X-C chemokine receptor type 4 (Homo sapiens), P61073 [T117A]; experiment: Displacement of 12G5 mAb from CXCR4 T117A mutant (unknown origin) expressed in CHO cells at 200 nM incubated for 40 mins by spectrophotometric method; assay type: cell-based; conditions: filed as antagonist
Sequence of C-X-C chemokine receptor type 4 (Homo sapiens), P61073 [T117A] (P61073 whole entry T117A): as the sequence (P61073 whole entry) above, with T117A counted along it

[18] = tested on: Human immunodeficiency virus 1; experiment: Antiviral activity against HIV-1 R5 Bal-6 infected in human PBMC assessed as inhibition of viral replication by measuring reduction in p24 antigen level at 10 uM measured after 5 days by ELISA; assay type: functional, organism-based; conditions: time 5.0 day
[19] = tested on: C-X-C chemokine receptor type 4 (Homo sapiens), P61073 [H113A]; experiment: Displacement of 12G5 mAb from CXCR4 H113A mutant (unknown origin) expressed in CHO cells at 200 nM incubated for 40 mins by spectrophotometric method; assay type: cell-based
Sequence of C-X-C chemokine receptor type 4 (Homo sapiens), P61073 [H113A] (P61073 whole entry H113A): as the sequence (P61073 whole entry) above, with H113A counted along it

[20] = tested on: C-X-C chemokine receptor type 4 (Homo sapiens), P61073 [N119A]; experiment: Displacement of 12G5 mAb from CXCR4 N119A mutant (unknown origin) expressed in CHO cells at 200 nM incubated for 40 mins by spectrophotometric method; assay type: cell-based
Sequence of C-X-C chemokine receptor type 4 (Homo sapiens), P61073 [N119A] (P61073 whole entry N119A): as the sequence (P61073 whole entry) above, with N119A counted along it

[21] = molecular target: T1, C-X-C chemokine receptor type 4; experiment: Antagonist activity against EGFP-tagged CXCR4 (unknown origin) transfected in CHO cells assessed as inhibition of SDF-1alpha-induced receptor internalization at 0.01 to 10 uM preincubated for 10 mins followed by SDF-1alpha addition by confocal microscopy; assay type: cell-based; conditions: filed as antagonist, dose 0.01-10 µM
[22] = tested on: C-X-C chemokine receptor type 4 (Homo sapiens), P61073 [W94A]; experiment: Displacement of 12G5 mAb from CXCR4 W94A mutant (unknown origin) expressed in CHO cells at 200 nM incubated for 40 mins by spectrophotometric method; assay type: cell-based
Sequence of C-X-C chemokine receptor type 4 (Homo sapiens), P61073 [W94A] (P61073 whole entry W94A): as the sequence (P61073 whole entry) above, with W94A counted along it

[23] = molecular target: T1, C-X-C chemokine receptor type 4; experiment: Antagonist activity against CXCR4 in human SUP-T1 cells assessed as inhibition of SDF-1alpha-induced intracellular calcium mobilization by Fluo-4AM dye based fluorescence analysis; assay type: cell-based; conditions: filed as antagonist, dose 0.01-10 µM
[24] = molecular target: T1, C-X-C chemokine receptor type 4; experiment: Antagonist activity against CXCR4 in human SUP-T1 cells assessed as inhibition of SDF-1alpha-induced intracellular calcium mobilization at 10 uM by Fluo-4AM dye based fluorescence analysis; assay type: cell-based; conditions: filed as antagonist
[25] = molecular target: T1, C-X-C chemokine receptor type 4; experiment: Antagonist activity against EGFP-tagged CXCR4 (unknown origin) transfected in CHO cells assessed as inhibition of SDF-1alpha-induced receptor internalization at 10 uM preincubated for 10 mins followed by SDF-1alpha addition by confocal microscopy; assay type: cell-based; conditions: filed as antagonist

IC50 [1]: 10.9 µM | IC50 [3]: 26.8 nM
Structure (SMILES): CC(C)C[C@@H](N)C(=O)NCC(=O)N[C@H](C)C(=O)N[C@H](CO)C(=O)N[C@H](Cc1c[nH]c2ccccc12)C(=O)N[C@H](Cc1cnc[nH]1)C(=O)N[C@H](CCCNC(=N)N)C(=O)N1CCC[C@@H]1C(=O)N[C@H](CC(=O)O)C(=O)N[C@H](CCCCN)C(=O)N[C@H](CCCCN)C(=O)N[C@H](CCCNC(=N)N)C(=O)N(CCCCCC(=O)O)[C@H](CCCCN[C@@H](CS)C(=O)N[C@@H](C(=O)N[C@H](CCCNC(=N)N)C(=O)N1CCC[C@@H]1C(=O)N[C@H](CC(N)=O)C(=O)N[C@H](CC(N)=O)C(=O)N[C@H](CC(N)=O)C(=O)N[C@@H](C(=O)N[C@H](CCCCN)C(=O)N[C@H](CCCNC(=N)N)C(N)=O)[C@@H](C)O)[C@@H](C)O)C(N)=O
Activity [2]: Non-Toxic | Activity [4]: inactive | Activity [5]: Active

Structure (SMILES): CC(C)C[C@@H](N)C(=O)NCC(=O)N[C@H](C)C(=O)N[C@H](CO)C(=O)N[C@H](Cc1c[nH]c2ccccc12)C(=O)N[C@H](Cc1cnc[nH]1)C(=O)N[C@H](CCCNC(=N)N)C(=O)N1CCC[C@@H]1C(=O)N[C@H](CC(=O)O)C(=O)N[C@H](CCCCN)C(=O)N[C@H](CCCCN)C(=O)N[C@H](CCCNC(=N)N)C(=O)N(CCCCCC(=O)O)[C@H](CCCCN)C(=O)N[C@H](CCCNC(=N)N)C(=O)N[C@H](CCCCN)C(=O)N[C@H](CCC(N)=O)C(=O)N[C@H](CCCNC(=N)N)C(=O)NCC(=O)N1CCC[C@@H]1C(=O)NCC(=O)N[C@H](CCCNC(=N)N)C(=O)N[C@H](C)C(=O)N[C@H](Cc1ccccc1)C(N)=O
inhibition [6]: Active | inhibition [7]: Dose-Dependent Effect | inhibition [8]: inactive | inhibition [9]: inactive | inhibition [10]: Active | inhibition [11]: inactive | inhibition [12]: inactive | inhibition [13]: inactive | inhibition [14]: inactive | Activity [2]: Non-Toxic | inhibition [15]: 100% | IC50 [3]: 43.4 nM | inhibition [16]: inactive | inhibition [17]: Active | Activity [18]: Active | inhibition [19]: inactive | inhibition [20]: inactive | inhibition [21]: Active | inhibition [22]: inactive | inhibition [23]: Dose-Dependent Effect | inhibition [24]: 100% | Activity [5]: Active | inhibition [25]: 100%
